Assay results: patent US11198704B2, “Butane-tetraol-based amphiphiles and uses thereof” (Industry-University Cooperation Foundation Hanyang …, priority 2016, dated 2021)

Legend:
[1] = biological target: T1, melibiose permease (MelB) (Salmonella typhimurium, UniProt P30878); assay: MelB extraction and thermostability, SDS-PAGE and Western Blotting of the dissolved protein; settings: 90 minutes, detergent 1.5% by weight
T1 construct: made in house; host or cells: E. coli DW2
Experimental: The MelB protein was extracted from a membrane using BTM-C11s or DDM, and the amount and structure of the extracted protein were analyzed through SDS-PAGE and Western Blotting. A concentration of the amphiphilic compound used was 1.5% by weight, and the protein was extracted at four temperatures (0, 45, 55, and 65° C.), and incubated at the same temperature for 90 minutes. Thereafter, an amount of the protein remaining dissolved in an aqueous solution was measured to evaluate two types of performance: protein extraction efficiency and stabilization ability of the compound. The amount of the protein extracted and stabilized with each of the amphiphilic molecules is expressed as a relative value (%) of the entire amount of proteins contained in a membrane sample which is not treated with the amphiphilic molecules.
Specifically, Salmonella typhimurium melibiose permease (MelBSt) having a 10-His tag at the C-terminus thereof was expressed in E. coli DW2 cells (AmelB and AlacZY) using a plasmid pK95ΔAHB/WT MelBSt/CH10. Cell growth and membrane preparation were performed according to the method disclosed in the article by A. S. Ethayathulla et al. (Nat. Commun. 2014, 5, 3009). A protein assay was performed using a Micro BCA kit (Thermo Scientific, Rockford, Ill.). An effect of the isomers (A-BTM-C11, B-BTM-C11, and M-BTM-C11) of the BTM-C11s or DDM on the MelBSt stability was evaluated using the protocol disclosed in P. S. Chae et al. (Nat. Methods 2010, 7, 1003-1008). A membrane sample (having a final protein concentration of 10 mg/mL) containing MelBSt was incubated at four temperatures (0, 45, 55, and 65° C.) for 90 minutes in a solubilizing buffer (20 mM sodium phosphate, pH 7.5, 200 mM NaCl, 10% glycerol, and 20 mM melibiose) containing 1.5% (w/v) DDM or the BTM-C11 isomers. To remove insoluble matter, the sample was ultracentrifuged at 355,590 g at 4° C. for 45 minutes using a Beckman Optima™ MAX ultracentrifuge equipped with a TLA-100 rotor. The dissolved fraction was separated by 16% SDS-PAGE, and then immunoblotted with a Penta-His-HRP antibody (Qiagen, Germantown, Md.). The membrane fraction containing 20 μg of untreated proteins was used to represent the entire MelB, and the treated samples were loaded in each well at the same volume. MelBSt was measured by an ImageQuant LAS 4000 Biomolecular imager (GE Health Care Life Sciences) using a SuperSignal West Pico chemiluminescent substrate.

[2] = Critical micelle concentration (CMC) using diphenylhexatriene (DPH) fluorescent stain; assay type: physicochemical; settings: aqueous solution
Experimental: A method of measuring the CMC is not particularly limited, but the CMC may be measured using methods well known in the related art. For example, the CMC may be measured by a fluorescence staining method using diphenylhexatriene (DPH).
Specifically, the critical micelle concentration (CMC) was measured using diphenylhexatriene (DPH) as a fluorescent stain, and the hydrodynamic radii (Rh) of the micelles formed by each preparation (1.0% by weight) were measured through a dynamic light scattering (DLS) experiment.

[3] = test system: leucine transporter (LeuT); assay: Structural stability of LeuT, [3H]-Leu binding by scintillation proximity assay (SPA); assay type: biochemical, Aquifex aeolicus; settings: CMC+0.04% or CMC+0.2% by weight; room temperature; 12 days incubation
Experimental: An experiment for measuring structural stability of a LeuT protein by BTMs in an aqueous solution was performed. Each amphiphilic compound was used at a concentration of (a) CMC+0.04% by weight or (b) CMC+0.2% by weight, and the ligand-binding characteristics of LeuT were determined through a scintillation proximity assay (SPA) using [^3H]-Leu. The measurement was performed at room temperature at regular intervals during an incubation period of 12 days.
Specifically, thermophilic bacteria (Aquifex aeolicus)-derived wild-type leucine transporter (LeuT) were purified using the method as described above (G. Deckert, et al., Nature 1998, 392, 353-358). LeuT was expressed in E. coli C41 (DE3) transformed with pET16b encoding a C-terminal 8×His-tagged transporter (an expression plasmid was provided from Dr. E. Gouaux, Vollum Institute, Portland, Oreg., USA). […] Protein samples were stored at room temperature for 12 days, and centrifuged for a given time, and the characteristics of the proteins were determined by measuring a [^3H]-leucine binding ability using SPA. […] The entire [^3H]-leucine binding affinity to each sample was measured using a MicroBeta liquid scintillation counter (PerkinElmer).

T1 sequence (P30878 whole entry): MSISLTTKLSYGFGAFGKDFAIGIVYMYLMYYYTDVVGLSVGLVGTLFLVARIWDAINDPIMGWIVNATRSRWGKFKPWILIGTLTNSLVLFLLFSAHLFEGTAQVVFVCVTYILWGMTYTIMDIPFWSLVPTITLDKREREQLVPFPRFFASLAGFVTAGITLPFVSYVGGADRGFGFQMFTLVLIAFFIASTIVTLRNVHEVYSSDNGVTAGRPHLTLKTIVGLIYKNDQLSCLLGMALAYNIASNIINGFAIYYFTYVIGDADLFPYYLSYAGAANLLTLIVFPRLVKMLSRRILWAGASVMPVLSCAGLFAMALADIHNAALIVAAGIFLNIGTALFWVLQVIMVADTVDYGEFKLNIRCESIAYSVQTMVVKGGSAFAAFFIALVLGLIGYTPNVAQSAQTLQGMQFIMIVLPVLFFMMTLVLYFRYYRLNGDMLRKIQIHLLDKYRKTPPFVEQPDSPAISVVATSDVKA

For `CCCCCCCCCCCCO[C@@H]1O[C@H](CO)[C@@H](O[C@H]2O[C@H](CO)[C@@H](O)[C@H](O)[C@H]2O)[C@H](O)[C@H]1O` [DDM, n-dodecyl-β-D-maltopyranoside, reference compound], the “MelB protein extraction efficiency / dissolved MelB” value ([1]; 0° C.) was “high MelB protein extraction efficiency”, the “amount of MelB protein remaining dissolved in aqueous solution” value ([1]; 55° C.) was “approximately 15%” and the “amount of dissolved MelB” value ([1]; 65° C.) was “very small amount of the protein remained”. For the same molecule, the “CMC” value [2] was ~0.17 mM, the “CMC (% by weight)” value [2] was ~0.0087 % by weight and the “maintenance of ligand-binding characteristics of LeuT” value [3] was “continuous structural collapse of the solubilized transporter”.
